The results in this text go back to ChEMBL document CHEMBL5154879, “Induction of Genes Implicated in Stress Response and Autophagy by a Novel Quinolin-8-yl-nicotinamide QN523 in Pancreatic Cancer” (J Med Chem, 2022).

Bounds are passed on as bounds.

What all share (assay type): functional, cell-based
Assay [1] concerns BXPC-3. Nature of the assay: Cytotoxicity against human BXPC-3 cells assessed as inhibition of cell growth incubated for 72 hrs by MTT assay. To be noted: BXPC-3, 72 h.
The test system of assay [2] is MIA PaCa-2. Nature of the assay: Cytotoxicity against human MIA PaCa-2 cells assessed as inhibition of cell growth incubated for 72 hrs by MTT assay. The conditions noted are these: MIA PaCa-2, 72 h.
The test system of assay [3] is PANC-1. Briefly: Cytotoxicity against human PANC-1 cells assessed as inhibition of cell growth incubated for 72 hrs by MTT assay. To be noted: PANC-1, 72 h.

For the compound `O=C(Nc1cccc2cccnc12)c1cccc(Br)n1`, the IC50 in assay [1], in assay [2] and in assay [3] was greater than 10 µM throughout.
As for `Cc1cnc(C(=O)Nc2cc(OCCNC(=O)OC(C)(C)C)cc3cccnc23)cn1`, the IC50 was determined as 3.67 µM in assay [1], 0.67 µM in assay [2] and 2.17 µM in assay [3].
For `Cc1cnc(C(=O)Nc2ccc3ncccc3c2)cn1`, the IC50 in assay [1], in assay [2] and in assay [3] was greater than 10 µM throughout.
As for `Cc1cnc(C(=O)Nc2cc(F)cc3cccnc23)cn1`, the IC50 in assay [1] is greater than 10 µM; in assay [2] it was 0.31 µM; in assay [3] it was 2.1 µM.
For the compound `O=C(Nc1cc(OCCN2CCCCC2)cc2cccnc12)c1cnccn1`, the IC50 in assay [1], in assay [2] and in assay [3] was greater than 10 µM each time.
Regarding `NCCOc1cc(NC(=O)c2ncccn2)c2ncccc2c1`, the IC50 in assay [1], in assay [2] and in assay [3] was greater than 10 µM each time.
`Cc1cnc(C(=O)Nc2cccc3ncccc23)cn1`: the IC50 in assay [1], in assay [2] and in assay [3] was greater than 10 µM each time.
In the case of `Cc1cnc(C(=O)Nc2cc(OCCN3CCOCC3)cc3cccnc23)cn1`, the results for the IC50 in assay [1], in assay [2] and in assay [3] were 2 µM, 0.73 µM and 3.5 µM, respectively.
The like results for `CC(C)(C)OC(=O)N1CCC(CCOc2cc(NC(=O)c3ncccn3)c3ncccc3c2)CC1` were, in that order, greater than 10 µM, greater than 10 µM and greater than 10 µM.
The like results for `Cc1cnc(C(=O)Nc2cc(OCCN)cc3cccnc23)cn1` were, in that order, greater than 10 µM, greater than 10 µM and greater than 10 µM.
Taken in the same sequence, the figures for `O=C(Nc1cc(Cl)cc2cccnc12)c1ncccn1` were greater than 10 µM, 0.8 µM and 4.67 µM.
With `O=C(Nc1cc(F)cc2cccnc12)c1cnccn1`, the IC50 was greater than 10 µM in assay [1], 0.13 µM in assay [2] and 0.67 µM in assay [3].
Regarding `O=C(Nc1cccc2cccnc12)c1ccc(Br)cn1`, the IC50 in assay [1] was greater than 10 µM; in assay [2], 1.8 µM; in assay [3] it was 4 µM.
Taken in the same sequence, the figures for `Cc1ccc(C(=O)Nc2cccc3cccnc23)cn1` were greater than 10 µM, greater than 10 µM and greater than 10 µM.
Taken in the same sequence, the figures for `Cc1ccc2cccc(NC(=O)c3cnccn3)c2n1` were greater than 10 µM, greater than 10 µM and greater than 10 µM.
In the case of `Cc1cnc(C(=O)Nc2ccc(Br)c3cccnc23)cn1`, the IC50 was greater than 10 µM in assay [1], 2.2 µM in assay [2] and 6.8 µM in assay [3].
The like results for `CC(C)(C)OC(=O)C1CCN(CCOc2cc(NC(=O)c3cnccn3)c3ncccc3c2)CC1` were, in that order, 3.33 µM, 3.67 µM and 9.5 µM.
With `Cc1cnc(C(=O)Nc2cc(OCCC3CCN(C(=O)OC(C)(C)C)CC3)cc3cccnc23)cn1`, the results for the IC50 in assay [1], in assay [2] and in assay [3] were 9.33 µM, 9 µM and 9.67 µM, respectively.
Consider `Cc1cnc(C(=O)Nc2cccc3ccc(C)nc23)cn1`, for which the IC50 in assay [1], in assay [2] and in assay [3] was greater than 10 µM each time.
For `O=C(Nc1cccc2cccnc12)c1cccnn1`, the half-maximal inhibitory concentration (IC50) is greater than 10 µM in assay [1], 8.5 µM in assay [2] and greater than 10 µM in assay [3].
For `COc1cc(NC(=O)c2ncccn2)c2ncccc2c1`, the IC50 in assay [1] is greater than 10 µM; in assay [2], 1.3 µM; in assay [3], 9 µM.
`COc1cc(NC(=O)c2cnccn2)c2ncccc2c1`: the IC50 is 0.47 µM in assay [1], 0.47 µM in assay [2] and 2.17 µM in assay [3].
`NCCOc1cc(NC(=O)c2cnccn2)c2ncccc2c1`: the IC50 in assay [1], in assay [2] and in assay [3] was greater than 10 µM throughout.
For `O=C(Nc1cccc2cccnc12)c1cnc(Cl)cn1`, the IC50 in assay [1] is greater than 10 µM; in assay [2] it was 7 µM; in assay [3], 9.3 µM.
Take `O=C(Nc1ccc(Br)c2cccnc12)c1cnccn1`: the IC50 in assay [1] turned out to be 7.5 µM; in assay [2], 0.75 µM; in assay [3], 7 µM.
The like results for `O=C(Nc1nccc2cccnc12)c1cnccn1` were, in that order, 7.2 µM, 7.7 µM and 6.7 µM.
For the compound `O=C(Nc1cc(F)cc2cccnc12)c1ncccn1`, the IC50 in assay [1] was greater than 10 µM; in assay [2], 0.3 µM; in assay [3] it was 5.3 µM.
For `Cc1ccc2cccc(NC(=O)c3ncccn3)c2n1`, the IC50 in assay [1], in assay [2] and in assay [3] was greater than 10 µM throughout.
As to `O=C(Nc1cc(OCCC2CCNCC2)cc2cccnc12)c1ncccn1`, the IC50 in assay [1], in assay [2] and in assay [3] was greater than 10 µM each time.
For `O=C(Nc1cccc2cccnc12)c1ncc2ccccc2n1`, the IC50 in assay [1], in assay [2] and in assay [3] was greater than 10 µM each time.
Take `COc1cc(NC(=O)c2cnc(C)cn2)c2ncccc2c1`: the IC50 came to 6.7 µM in assay [1], 0.27 µM in assay [2] and 0.8 µM in assay [3].
Taken in the same sequence, the figures for `O=C(Nc1cc(OCCF)cc2cccnc12)c1cnccn1` were 4.33 µM, 0.37 µM and 0.53 µM.
The like results for `O=C(Nc1cccc2cccnc12)c1ncccn1` were, in that order, greater than 10 µM, 0.33 µM and greater than 10 µM.
Taken in the same sequence, the figures for `Cc1cnc(C(=O)Nc2cc(Cl)cc3cccnc23)cn1` were 5.2 µM, 1.5 µM and 1.77 µM.
As to `CC(C)(C)OC(=O)NCCOc1cc(NC(=O)c2cnccn2)c2ncccc2c1`, the IC50 in assay [1] amounted to 9.17 µM; in assay [2], 0.87 µM; in assay [3], 9.5 µM.
On to `CN(C)Cc1ccc2cccc(NC(=O)c3cnccn3)c2n1`, for which the IC50 in assay [1], in assay [2] and in assay [3] was greater than 10 µM each time.
In the case of `O=C(Nc1cccc2cccnc12)c1ccc(F)nc1`, the IC50 in assay [1], in assay [2] and in assay [3] was greater than 10 µM each time.
Consider `O=C(Nc1cccc2cccnc12)c1ccc(Br)nc1`, for which the IC50 in assay [1], in assay [2] and in assay [3] was greater than 10 µM in each case.
For `O=C(Nc1cc(OCCN2CCOCC2)cc2cccnc12)c1cnccn1`, the IC50 in assay [1] is 5.17 µM; in assay [2], 1.7 µM; in assay [3] it was 8.17 µM.
The like results for `CN(C)CCOc1cc(NC(=O)c2cnccn2)c2ncccc2c1` were, in that order, greater than 10 µM, greater than 10 µM and greater than 10 µM.
The like results for `Cc1cnc(C(=O)Nc2cc(OCCC3CCNCC3)cc3cccnc23)cn1` were, in that order, 8.33 µM, 6.17 µM and greater than 10 µM.
Taken in the same sequence, the figures for `Cc1cnc(C(=O)Nc2cccc3cccnc23)cn1` were 9.4 µM, 0.5 µM and 1.8 µM.
Regarding `CC(C)(C)OC(=O)NCCOc1cc(NC(=O)c2ncccn2)c2ncccc2c1`, the concentration for half-maximal inhibition (IC50) in assay [1], in assay [2] and in assay [3] was greater than 10 µM in each case.
As for `O=C(Nc1cc(Cl)cc2cccnc12)c1cnccn1`, the IC50 is greater than 10 µM in assay [1], 2.83 µM in assay [2] and 2.7 µM in assay [3].
Taken in the same sequence, the figures for `Cc1cnc(C(=O)Nc2cc(OCCN(C)C)cc3cccnc23)cn1` were 9.67 µM, 1.8 µM and 4.5 µM.
